In patent US4371466A, “Mammalian collagenase inhibitors” (American Home Products Corporation, priority 1981, dated 1983):
Non-standard residues stand in square brackets, D forms with d. Residues, ends and D or L forms follow the SMILES beside them. pGlu = O=C1CC[C@@H](C(=O)O)N1

system: collagenase; experiment: Collagenase inhibition, acetyl 14C collagen hydrolysis (procedure of Sellers et al.); assay type: biochemical; details: 2 mM inhibitor, 35° C., 5 to 18 hours, Tris-CaCl2 pH 7.4, versus control devoid of inhibitor
Experimental: The collagen is acetyl ^14 C collagen. The samples are centrifuged and an aliquot removed for assay on a scintillation counter. Because native collagen forms insoluble fibrils under the test conditions, the supernatant liquid contains radioactivity as a measure of hydrolysis. The collagenase activity in the presence of 2 mM inhibitor is compared to activity in a control devoid of inhibitor and the results reported as percent inhibition of collagenase activity. Each of the compounds of this invention have been established as active collagenase inhibitors by the test procedure.
The following examples illustrate the preparation of typical representative compounds of the invention. After each preparative example, the percent inhibition of collagenase activity at the 2 mM level of inhibition in accordance with the previously described standart testing procedure is provided.

Row | Compound | Percent inhibition collagenase [%]
1 | CC[C@H](C)[C@H](NC(=O)[C@@H](N)CS)C(N)=O [Example 1, H-L-Cys-L-Ile-NH2] (H-Cys-Ile-NH2) | 35
2 | CC[C@H](C)[C@H](NC(=O)[C@H](CS)NC(=O)[C@@H]1CCC(=O)N1)C(N)=O [Example 2, L-pGlu-L-Cys-L-Ile-NH2] ([pGlu]-Cys-Ile-NH2) | 75
3 | Ac-PQGIAG-NH2 [Example 3, CH3 CO-Pro-Gln-Gly-Ile-Ala-Gly-NH2] | 35
